Source: ChEMBL document CHEMBL1201862, “PubChem BioAssay data set” (2004)
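Step 1: Grow cells in 96-well plates. Step 2: Expose to compound for 48 hours at 5 concentrations. Step 3: Interpolate endpoints linearly; if unreached, use highest concentration. At the GI50, growth is halved.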 Active and inactive are the calls of the source. No stated cut-off is given here; in the data, active = GI50 up to about 1.1 µM and inactive = higher.

Legend:
Experiment in all cases: NCI anticancer screen, dose series, 48 h
SNB-19 = system: SNB-19
786-0 = system: 786-0
SF-539 = system: SF-539
UACC-62 = system: UACC-62
M14 = system: M14
MOLT-4 = system: MOLT-4
MDA-N = system: MDA-N
PC-3 = system: PC-3
A549 = system: A549
KM12 = system: KM12
K562 = system: K562
DU-145 = system: DU-145
MDA-MB-231 = system: MDA-MB-231
SF-295 = system: SF-295
Hs-578T = system: Hs-578T
RPMI-8226 = system: RPMI-8226
NCI-H522 = system: NCI-H522
EKVX = system: EKVX
HOP-62 = system: HOP-62
UACC-257 = system: UACC-257

Measured: GI50

CC(=O)OCC1OC(n2c(-c3ccc(C)cc3)cc(-c3ccccc3)c(C#N)c2=S)C(OC(C)=O)C(OC(C)=O)C1OC(C)=O (stereo not given)
inactive: SNB-19 > 100 µM | 786-0 > 100 µM | SF-539 > 100 µM | UACC-62 > 100 µM | M14 > 100 µM | MOLT-4 > 100 µM | MDA-N > 100 µM | PC-3 > 100 µM | A549 > 100 µM | KM12 > 100 µM | K562 > 100 µM | DU-145 > 100 µM | MDA-MB-231 > 100 µM | SF-295 > 100 µM | Hs-578T 65.2 µM | RPMI-8226 > 100 µM | NCI-H522 > 100 µM | EKVX > 100 µM | HOP-62 > 100 µM

CCN=C=NCCCN(C)C
inactive: SNB-19 > 100 µM | 786-0 > 100 µM | SF-539 > 100 µM | UACC-62 > 100 µM | M14 > 100 µM | MOLT-4 > 100 µM | MDA-N > 100 µM | PC-3 > 100 µM | A549 > 100 µM | KM12 > 100 µM | K562 > 100 µM | DU-145 > 100 µM | MDA-MB-231 > 100 µM | SF-295 > 100 µM | Hs-578T > 100 µM | RPMI-8226 > 100 µM | NCI-H522 > 100 µM | EKVX > 100 µM | UACC-257 > 100 µM | HOP-62 > 100 µM

C=CC(O)(CBr)CCC(Br)C(C)(C)Cl (stereo not given)
inactive: SNB-19 > 10 µM | 786-0 > 10 µM | SF-539 > 10 µM | M14 > 10 µM | MOLT-4 > 10 µM | MDA-N > 10 µM | PC-3 > 10 µM | A549 > 10 µM | KM12 > 10 µM | K562 > 10 µM | DU-145 > 10 µM | MDA-MB-231 > 10 µM | SF-295 > 10 µM | Hs-578T > 10 µM | RPMI-8226 > 10 µM | NCI-H522 > 10 µM | EKVX > 10 µM | UACC-257 > 10 µM | HOP-62 > 10 µM

Fc1ccc(/C=C2\COCC3=C2NC(=S)NC3c2ccc(F)cc2)cc1 (stereo not given)
inactive: SNB-19 23.6 µM | 786-0 18.3 µM | SF-539 20 µM | UACC-62 17.2 µM | M14 16.4 µM | MOLT-4 20 µM | MDA-N 17.6 µM | PC-3 17.3 µM | KM12 24.4 µM | K562 19 µM | DU-145 26.5 µM | MDA-MB-231 18.5 µM | SF-295 18.7 µM | Hs-578T 24.8 µM | RPMI-8226 16.5 µM | NCI-H522 16.4 µM | EKVX 20 µM | UACC-257 18.7 µM | HOP-62 17.6 µM

O=C(Nc1nnc(-c2ccccc2)o1)C(SC(=S)N1CCOCC1)c1ccccc1 (stereo not given)
inactive: SNB-19 40.1 µM | 786-0 17.9 µM | SF-539 33.3 µM | M14 20.4 µM | MOLT-4 7.98 µM | MDA-N 26.3 µM | PC-3 27 µM | A549 22.6 µM | KM12 34.3 µM | K562 19.5 µM | DU-145 37.2 µM | MDA-MB-231 42 µM | SF-295 21.8 µM | Hs-578T 86.3 µM | RPMI-8226 22.6 µM | NCI-H522 23.2 µM | EKVX 15.3 µM | UACC-257 35.6 µM | HOP-62 24.1 µM

Cc1c(/N=N/c2ccccc2)c(-c2ccccc2)n(C2OC(CO)C(O)C(O)C2O)c(=S)c1C#N (stereo not given)
inactive: SNB-19 7.64 µM | 786-0 5.14 µM | SF-539 5.13 µM | UACC-62 3.6 µM | M14 6.5 µM | MOLT-4 1.95 µM | MDA-N 4.71 µM | PC-3 2.99 µM | A549 5.83 µM | KM12 2.98 µM | K562 3.21 µM | DU-145 6.17 µM | MDA-MB-231 10 µM | SF-295 6.71 µM | Hs-578T 2.86 µM | RPMI-8226 4.06 µM | NCI-H522 3.5 µM | EKVX 13.8 µM | HOP-62 7.14 µM

CCOC(=O)c1nc2cc(C(F)(F)F)ccc2nc1Nc1cc(OC)c(OC)c(OC)c1
inactive: SNB-19 > 100 µM | 786-0 > 100 µM | SF-539 > 100 µM | UACC-62 > 100 µM | M14 > 100 µM | MOLT-4 > 100 µM | MDA-N > 100 µM | PC-3 > 100 µM | A549 > 100 µM | KM12 > 100 µM | K562 > 100 µM | DU-145 > 100 µM | MDA-MB-231 > 100 µM | SF-295 > 100 µM | Hs-578T > 100 µM | RPMI-8226 > 100 µM | NCI-H522 > 100 µM | EKVX > 100 µM | UACC-257 > 100 µM | HOP-62 > 100 µM
